Test results from US6410790B1, “3-amin3-arylpropan-1-ol compounds, their preparation and use” (priority 1999, dated 2002).

Experiments:
NA transporter = target: T1, NA transporter (Rattus norvegicus, UniProt Q63380); assay: synaptosomal noradrenaline uptake inhibition (NA uptake inhibition); assay type: biochemical; conditions: read-out: NA Uptake Inhibition at 1 μM, 1 μM in the assay, synaptosomes from rat hypothalamus
T1 construct: synaptosomes are isolated fresh from rat brains; from tissue; host or cells: rat hypothalamus synaptosomes (P2 fraction)
T1 sequence (Q63380 1-617): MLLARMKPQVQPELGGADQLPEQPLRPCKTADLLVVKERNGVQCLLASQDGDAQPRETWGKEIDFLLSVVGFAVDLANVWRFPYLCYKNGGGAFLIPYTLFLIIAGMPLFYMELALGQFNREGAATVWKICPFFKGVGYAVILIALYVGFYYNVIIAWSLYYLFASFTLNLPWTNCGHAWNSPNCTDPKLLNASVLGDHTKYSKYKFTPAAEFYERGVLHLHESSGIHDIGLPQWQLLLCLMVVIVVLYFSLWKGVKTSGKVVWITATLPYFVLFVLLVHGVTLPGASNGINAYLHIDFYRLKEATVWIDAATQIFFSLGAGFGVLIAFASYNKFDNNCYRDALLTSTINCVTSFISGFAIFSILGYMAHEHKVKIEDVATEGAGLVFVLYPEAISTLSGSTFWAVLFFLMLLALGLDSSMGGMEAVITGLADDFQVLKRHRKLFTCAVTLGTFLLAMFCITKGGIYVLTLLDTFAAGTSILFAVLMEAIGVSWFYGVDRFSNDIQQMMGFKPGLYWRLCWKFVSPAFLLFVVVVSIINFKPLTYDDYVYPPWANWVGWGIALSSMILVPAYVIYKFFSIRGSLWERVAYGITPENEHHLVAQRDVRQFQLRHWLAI
In short: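 IC50 values converted to Ki via Cheng-Prusoff; Km by Lineweaver-Burk. N=4 independent series, each in triplicate, mean ± SEM.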

[1] = test system: phenylquinone-induced writhing reaction; assay: phenylquinone-induced writhing test in mice; assay type: in vivo; conditions: Mus musculus, iv, 10 min, male NMRI mice, 10 mg/kg intravenously, phenylquinone i.p. 10 minutes later
In short: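 Male NMRI mice (25–30 g, n=10/group) received test substance i.v. at 10 mg/kg, then 0.02% phenylquinone i.p. 10 min later. Writhing reactions were counted 5–20 min after phenylquinone; % inhibition is relative to saline-treated controls.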

[2] = test system: phenylalkylamine binding site of the L-type calcium channel; assay: Verapamil binding, L calcium channel; conditions: 10 μM, percentage inhibition, N-methyl-[3H]-verapamil 2 nM
Description: Binding Investigations in the L Calcium Channel
Phenylalkylamine Binding Site (Verapamil Binding)
The biological material (ion channel particles) was prepared on the basis of the publication of Reynolds, Gould and Snyder (I. J. Reynolds, R. J. Gould and S. H. Snyder (1983) […]. 95, 319-321).
N-methyl-[^3H]-verapamil (2 nM in the assay) was used as radioligand. The radioactivity that is measured in the presence of non-radioactive verapamil (10^−4 M in the assay) is defined as non-specific binding. The material was incubated at 25° C. for 45 minutes. The material was then filtered using a Whatman GF/B filter, followed by washing. The radioactivity remaining on the filter (ion channel binding) was measured using a β-counter.
For this purpose IC50 values are obtained, which can be converted to inhibitor constants (Ki) according to the “Cheng-Prusoff equation” (Y. C. Clieng and W. H. Prusoff (1973) Biochem. Pharmacol. 22, 3099-3108). The IC50 values were obtained by means of the computer program “Figure P” (version 6.0, Biosoft, Cambridge, England). Km values were calculated according to Lineweaver and Burk (H. Lineweaver and D. Burk (1934) J. Am. Chem. Soc. 56, 658-666). The “Ligand” computer program (version 4, Biosoft, England) was used to obtain Ken values.

[3] = test system: benzothiazepine binding site of the L-type calcium channel; assay: Diltiazem binding, L calcium channel; parameters: species or system rat; conditions: 10 μM, percentage inhibition, [3H]-cis-(+)-diltiazem 5 nM, rat cerebral cortex membranes
In short: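 Rat cerebral cortex membranes incubated with [^3H]-cis-(+)-diltiazem (5 nM) for 20 min at 25° C; nonspecific binding defined with (±)-diltiazem (10^−6 M). Bound ligand collected by GF/B filtration and counted; IC50 values converted to Ki by Cheng-Prusoff.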

[4] = test system: binding site 2 of the sodium channel; assay: BTX binding, sodium channel; conditions: 10 μM, percentage inhibition, [3H]-batrachotoxin A20 α-benzoate 10 nM, rat cerebral cortex synaptosomes
In short: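 Rat cerebral cortex synaptosomes incubated with 10 nM [^3H]-batrachotoxin A20 α-benzoate at 37° C for 120 min; non-specific binding defined with 0.3 mM veratridine. IC50 values converted to Ki via Cheng-Prusoff; means±SEM of 3 independent series run in triplicate.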

Row | SMILES | inhibition at 1 µM (NA transporter) [%] | inhibition in vivo at 10 mg/kg [1] [%] | melting point [°C] | Verapamil Binding at 10 μM [2] [%] | Diltiazem Binding at 10 μM [3] [%] | BTX Binding at 10 μM [4] [%]
1 | Cc1ccc(C2(O)CCCCC2C(c2ccccc2)N(C)C)cc1.Cl (stereo not drawn) [Example 8, 2-(dimethylaminophenylmethyl)-1-p-tolylcyclohexanol, hydrochloride] | 50 | 81 | 168 to 169 | 56 | 68 | 88
2 | CN(C)C(c1ccccc1)C1CCCCC1(O)Cc1ccccc1.Cl (stereo not drawn) [Example 14, 1-benzyl-2-(dimethylaminophenylmethyl)cyclohexanol, hydrochloride] | 100 | 70 | 223 to 225 | – | 88 | 89
3 | CN(C)C(c1ccccc1)C1CCCCC1(O)Cc1ccc(C(C)(C)C)cc1.Cl (stereo not drawn) [Example 28, 1-(4-tert.-butylbenzyl)-2-(dimethylaminophenylmethyl)cyclohexanol, hydrochloride] | 63 | 100 | 227 to 229 | – | 89 | 100
4 | CN(C)C(c1ccccc1)C1CCCCC1(O)c1ccc(F)c(C(F)(F)F)c1.Cl (stereo not drawn) [Example 15, 2-(dimethylaminophenylmethyl)-1-(4-fluoro-3-trifluoromethylphenyl)cyclohexanol, hydrochloride] | 44 | 73 | 234 to 237 | 87 | 97 | 94
5 | CN(C)C(c1ccccc1)C1CCCCC1(O)Cc1cccc(F)c1.Cl (stereo not drawn) [Example 29, 2-(dimethylaminophenylmethyl)-1-(3-fluorobenzyl)cyclohexanol, hydrochloride] | 96 | 96 | 146 to 147 | – | 72 | 88
